Experimental data: patent publication EP3797781A1, “USE OF EC-7072 AND SYNERGIC COMPOSITIONS THEREOF IN TREATMENT OF CHRONIC LYMPHOCYTIC LEUKEMIA” (priority 2019, dated 2021)

System: T cells and NK cells
Experiment: Intracellular staining of IFN-γ and perforin upon PMA/ionomycin stimulation
Type: cell-based, human
Conditions: 200 nM, 24 hours, PBMCs from patients with CLL (n = 4)
Procedure: PBMCs from patients with CLL were treated with 200 nM EC-7072 or DMSO for 24 hours and stimulated with PMA (50 ng/mL) and ionomycin (1 µg/mL) for 5 hours in the presence of GolgiPlug protein transport inhibitor (Beckton Dickinson). T cells and NK cells were then analyzed for intracellular levels of IFN-γ and perforin by flow cytometry.
The effect of EC-7072 toward healthy immune subsets, T lymphocytes and natural killer (NK) cells, which are chronically exposed to leukemia cells in the peripheral blood of patients with CLL was assessed by: • (i) incubating PBMCs isolated from patients with CLL (n = 10) following treatment with increasing concentrations of EC-7072 (0 - 400 nM) for 24 hours. Numbers of T cells (CD3^+CD56^-) (Figure 2A) and NK cells (CD3^-CD56^+) (Figure 2B) were evaluated by flow cytometry and normalized to their respective control (DMSO) condition for each individual patient to obtain percentage of relative number of T cells and NK cells, respectively; • (ii) incubating PBMCs isolated from patients with CLL (n = 6 - 10) following treatment with increasing concentrations of EC-7072 (0 - 400 nM) for 24 hours. […]

Structure (SMILES): CO[C@@H]([C@@H]1Cc2cc3cc(O[C@H]4C[C@@H](O[C@H]5C[C@@H](O)[C@H](O)[C@@H](C)O5)[C@H](O)[C@@H](C)O4)c(C)c(O)c3c(O)c2C(=O)[C@H]1O[C@H]1C[C@@H](O[C@H]2C[C@@H](O[C@H]3C[C@](C)(O)[C@H](O)[C@@H](C)O3)[C@@H](O)[C@@H](C)O2)[C@H](O)[C@@H](C)O1)[C@@H](O)C(C)=O [EC-7072, mithramycin SK]
- production of interferon (IFN)-γ and perforin by T cells and NK cells: not significantly altered
